Source: paper PMC12307812 (Nature Communications, 2025)

How the values were obtained:
[1] = target: T1, Recombinant Human TMPRSS2 (Homo sapiens, UniProt O15393); test: TMPRSS2 biochemical assay with pre-incubation of inhibitor and enzyme; conditions: for inhibition at 2.788 pM: concentration 0.00278767 nM; for inhibition at 8.363 pM: concentration 0.00836301 nM; for inhibition at 25.09 pM: concentration 0.025089 nM; for inhibition at 75.27 pM: concentration 0.0752671 nM; for inhibition at 0.000225801 µM: concentration 0.225801 nM; for inhibition at 0.000677404 µM: concentration 0.677404 nM; for inhibition at 0.00203221 µM: concentration 2.03221 nM; for inhibition at 0.00609663 µM: concentration 6.09663 nM; for inhibition at 0.0182899 µM: concentration 18.2899 nM; for inhibition at 0.0548697 µM: concentration 54.8697 nM; for inhibition at 0.164609 µM: concentration 164.609 nM; for inhibition at 0.493827 µM: concentration 493.827 nM; for inhibition at 1.48148 µM: concentration 1481.48 nM; for inhibition at 4.44444 µM: concentration 4444.44 nM; for inhibition at 13.3333 µM: concentration 13333.3 nM; for inhibition at 40 µM: concentration 40000 nM
T1 construct: human TMPRSS2 residues 106492, N-terminal 6x His-tag; 6x His-tag (N); purchased Cusabio CSB-YP023924HU; host or cells: yeast
Method: To that was dispensed TMPRSS2 (5 µl, 0.018 mg/ml) in assay buffer (50 mM Tris pH 8, 150 mM NaCl, 0.01% Tween20) using a BioRAPTR (Beckman Coulter) to give a total reaction volume of 5 µl. […] The final assay conditions are 10 µM peptide, 0.018 mg/ml TMPRSS2 in assay buffer (50 mM Tris-HCl, pH 8, 150 mM NaCl, 0.01% Tween20).
After incubation at room temperature for 1 h, fluorescence was measured. […] Raw plate reads for each titration point were normalized relative to a positive control containing no enzyme (0% activity, full inhibition) and a negative control containing DMSO-only wells (100% activity, basal activity). Data normalization was performed using GraphPad Prism (GraphPad Software, San Diego, CA).
We employed the curve fitting algorithm available in the SciPy package (version 1.10.1)[61] to derive the Hill slope and the IC50 value, along with their corresponding error estimates.
To model the relationship between the pre-incubation time and the IC50, we use the following equation inspired by the Morse potential:3 ft,a,D,te=D⋅1−exp−a⋅t−te^2 where t is the time, a is the width of the well, D is the IC50 at infinite time (depth of the well) and te is the time at which the IC50 reaches its minimum. Again, we made use of SciPy’s curve fitting method to obtain parameters a, D and te, with their respective error estimates.

[2] = system: pseudovirus bearing S protein of HCoV-NL63; test: organism not typed; assay type: cell-based
[3] = system: pseudovirus bearing S protein of SARS-CoV-1; test: organism not typed; assay type: cell-based
[4] = Calu-3, read-out: mean inhibition

T1 sequence (O15393 106-492 limits assumed): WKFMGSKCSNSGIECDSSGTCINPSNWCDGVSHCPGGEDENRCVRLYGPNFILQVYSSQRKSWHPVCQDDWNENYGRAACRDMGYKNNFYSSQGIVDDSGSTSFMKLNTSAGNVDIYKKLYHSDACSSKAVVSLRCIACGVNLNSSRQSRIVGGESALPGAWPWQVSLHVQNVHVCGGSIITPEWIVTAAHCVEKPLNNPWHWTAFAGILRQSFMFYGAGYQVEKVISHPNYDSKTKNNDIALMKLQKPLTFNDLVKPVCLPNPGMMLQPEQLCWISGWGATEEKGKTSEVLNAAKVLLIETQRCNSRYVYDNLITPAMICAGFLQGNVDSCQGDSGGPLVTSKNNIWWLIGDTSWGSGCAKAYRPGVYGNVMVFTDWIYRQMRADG

Which results are given for CC(C)(C)NC(=O)N1CCN(C(=O)N2C(=O)C(CCCNC(=N)N)C2C(=O)O)CC1 (stereo not shown) [BMS-262084]?
fold IC50 relative to camostat and nafamostat ([1]; after 48 h of pre-incubation): 5 fold; inhibition at 2.788 pM ([1]; pre-incubation 0): -15.1%; inhibition at 8.363 pM ([1]; pre-incubation 0): -14.4%; inhibition at 25.09 pM ([1]; pre-incubation 0): -2.55%; inhibition at 75.27 pM ([1]; pre-incubation 0): 9.07%; inhibition at 0.000225801 µM ([1]; pre-incubation 0): 39.6%; inhibition at 0.000677404 µM ([1]; pre-incubation 0): 61.8%; inhibition at 0.00203221 µM ([1]; pre-incubation 0): 83.9%; inhibition at 0.00609663 µM ([1]; pre-incubation 0): 90.2%; inhibition at 0.0182899 µM ([1]; pre-incubation 0): 93.8%; inhibition at 0.0548697 µM ([1]; pre-incubation 0): 94.7%; inhibition at 0.164609 µM ([1]; pre-incubation 0): 96.7%; inhibition at 0.493827 µM ([1]; pre-incubation 0): 97.7%; inhibition at 1.48148 µM ([1]; pre-incubation 0): 98.2%; inhibition at 4.44444 µM ([1]; pre-incubation 0): 98%; inhibition at 13.3333 µM ([1]; pre-incubation 0): 101%; inhibition at 40 µM ([1]; pre-incubation 0): 100%; inhibition at 2.788 pM ([1]; pre-incubation 1): 9.6%; inhibition at 8.363 pM ([1]; pre-incubation 1): 9.83%; inhibition at 25.09 pM ([1]; pre-incubation 1): 32.2%; inhibition at 75.27 pM ([1]; pre-incubation 1): 60.8%; inhibition at 0.000225801 µM ([1]; pre-incubation 1): 90%; inhibition at 0.000677404 µM ([1]; pre-incubation 1): 96.9%; inhibition at 0.00203221 µM ([1]; pre-incubation 1): 97.1%; inhibition at 0.00609663 µM ([1]; pre-incubation 1): 97.8%; inhibition at 0.0182899 µM ([1]; pre-incubation 1): 97.1%; inhibition at 0.0548697 µM ([1]; pre-incubation 1): 97.8%; inhibition at 0.164609 µM ([1]; pre-incubation 1): 97.6%; inhibition at 0.493827 µM ([1]; pre-incubation 1): 98.2%; inhibition at 1.48148 µM ([1]; pre-incubation 1): 99.5%; inhibition at 4.44444 µM ([1]; pre-incubation 1): 100%; inhibition at 13.3333 µM ([1]; pre-incubation 1): 101%; inhibition at 40 µM ([1]; pre-incubation 1): 102%; inhibition at 2.788 pM ([1]; pre-incubation 4): 5.94%; inhibition at 8.363 pM ([1]; pre-incubation 4): 11.2%; inhibition at 25.09 pM ([1]; pre-incubation 4): 52.1%; inhibition at 75.27 pM ([1]; pre-incubation 4): 87.4%; inhibition at 0.000225801 µM ([1]; pre-incubation 4): 99.5%; inhibition at 0.000677404 µM ([1]; pre-incubation 4): 99.4%; inhibition at 0.00203221 µM ([1]; pre-incubation 4): 99.5%; inhibition at 0.00609663 µM ([1]; pre-incubation 4): 99.5%; inhibition at 0.0182899 µM ([1]; pre-incubation 4): 99.8%; inhibition at 0.0548697 µM ([1]; pre-incubation 4): 99.8%; inhibition at 0.164609 µM ([1]; pre-incubation 4): 100%; inhibition at 0.493827 µM ([1]; pre-incubation 4): 100%; inhibition at 1.48148 µM ([1]; pre-incubation 4): 101%; inhibition at 4.44444 µM ([1]; pre-incubation 4): 101%; inhibition at 13.3333 µM ([1]; pre-incubation 4): 103%; inhibition at 40 µM ([1]; pre-incubation 4): 102%; inhibition at 2.788 pM ([1]; pre-incubation 8): 25.7%; inhibition at 8.363 pM ([1]; pre-incubation 8): 29.7%; inhibition at 25.09 pM ([1]; pre-incubation 8): 84.9%; inhibition at 75.27 pM ([1]; pre-incubation 8): 109%; inhibition at 0.000225801 µM ([1]; pre-incubation 8): 113%; inhibition at 0.000677404 µM ([1]; pre-incubation 8): 114%; inhibition at 0.00203221 µM ([1]; pre-incubation 8): 114%; inhibition at 0.00609663 µM ([1]; pre-incubation 8): 116%; inhibition at 0.0182899 µM ([1]; pre-incubation 8): 115%; inhibition at 0.0548697 µM ([1]; pre-incubation 8): 116%; inhibition at 0.164609 µM ([1]; pre-incubation 8): 116%; inhibition at 0.493827 µM ([1]; pre-incubation 8): 116%; inhibition at 1.48148 µM ([1]; pre-incubation 8): 118%; inhibition at 4.44444 µM ([1]; pre-incubation 8): 119%; inhibition at 13.3333 µM ([1]; pre-incubation 8): 118%; inhibition at 40 µM ([1]; pre-incubation 8): 118%; inhibition at 2.788 pM ([1]; pre-incubation 18): 20.8%; inhibition at 8.363 pM ([1]; pre-incubation 18): 24.6%; inhibition at 25.09 pM ([1]; pre-incubation 18): 83.1%; inhibition at 75.27 pM ([1]; pre-incubation 18): 92.8%; inhibition at 0.000225801 µM ([1]; pre-incubation 18): 95.2%; inhibition at 0.000677404 µM ([1]; pre-incubation 18): 95.6%; inhibition at 0.00203221 µM ([1]; pre-incubation 18): 98.1%; inhibition at 0.00609663 µM ([1]; pre-incubation 18): 98.2%; inhibition at 0.0182899 µM ([1]; pre-incubation 18): 99.5%; inhibition at 0.0548697 µM ([1]; pre-incubation 18): 101%; inhibition at 0.164609 µM ([1]; pre-incubation 18): 102%; inhibition at 0.493827 µM ([1]; pre-incubation 18): 103%; inhibition at 1.48148 µM ([1]; pre-incubation 18): 102%; inhibition at 4.44444 µM ([1]; pre-incubation 18): 103%; inhibition at 13.3333 µM ([1]; pre-incubation 18): 104%; inhibition at 40 µM ([1]; pre-incubation 18): 105%; inhibition at 2.788 pM ([1]; pre-incubation 24): 45.1%; inhibition at 8.363 pM ([1]; pre-incubation 24): 50.8%; inhibition at 25.09 pM ([1]; pre-incubation 24): 105%; inhibition at 75.27 pM ([1]; pre-incubation 24): 110%; inhibition at 0.000225801 µM ([1]; pre-incubation 24): 114%; inhibition at 0.000677404 µM ([1]; pre-incubation 24): 114%; inhibition at 0.00203221 µM ([1]; pre-incubation 24): 114%; inhibition at 0.00609663 µM ([1]; pre-incubation 24): 115%; inhibition at 0.0182899 µM ([1]; pre-incubation 24): 116%; inhibition at 0.0548697 µM ([1]; pre-incubation 24): 115%; inhibition at 0.164609 µM ([1]; pre-incubation 24): 116%; inhibition at 0.493827 µM ([1]; pre-incubation 24): 116%; inhibition at 1.48148 µM ([1]; pre-incubation 24): 117%; inhibition at 4.44444 µM ([1]; pre-incubation 24): 117%; inhibition at 13.3333 µM ([1]; pre-incubation 24): 117%; inhibition at 40 µM ([1]; pre-incubation 24): 117%; inhibition at 2.788 pM ([1]; pre-incubation 48): 32.3%; inhibition at 8.363 pM ([1]; pre-incubation 48): 30.9%; inhibition at 25.09 pM ([1]; pre-incubation 48): 88.5%; inhibition at 75.27 pM ([1]; pre-incubation 48): 93.1%; inhibition at 0.000225801 µM ([1]; pre-incubation 48): 95.9%; inhibition at 0.000677404 µM ([1]; pre-incubation 48): 96.1%; inhibition at 0.00203221 µM ([1]; pre-incubation 48): 94.8%; inhibition at 0.00609663 µM ([1]; pre-incubation 48): 94.5%; inhibition at 0.0182899 µM ([1]; pre-incubation 48): 96.1%; inhibition at 0.0548697 µM ([1]; pre-incubation 48): 96.3%; inhibition at 0.164609 µM ([1]; pre-incubation 48): 97.7%; inhibition at 0.493827 µM ([1]; pre-incubation 48): 99.7%; inhibition at 1.48148 µM ([1]; pre-incubation 48): 101%; inhibition at 4.44444 µM ([1]; pre-incubation 48): 105%; inhibition at 13.3333 µM ([1]; pre-incubation 48): 109%; inhibition at 40 µM ([1]; pre-incubation 48): 112%; IC50 ([2]; Calu-3, read-out: IC50 estimate, pseudovirus cell entry NL63-S): 432 ± 223 nM; inhibition at 0.00025 µM [2, 4]: -0.475%; inhibition at 0.0025 µM [2, 4]: 8.77%; inhibition at 0.025 µM [2, 4]: 16.9%; inhibition at 0.25 µM [2, 4]: 57.8%; inhibition at 2.5 µM [2, 4]: 66.8%; inhibition at 25 µM [2, 4]: 73.5%; IC50 ([3]; Calu-3, read-out: IC50 estimate, pseudovirus cell entry SARS-1-S): 82 ± 23.1 nM; inhibition at 0.00025 µM ([3]; Calu-3, concentration 0.25 nM): 3.34%; inhibition at 0.0025 µM ([3]; Calu-3, concentration 2.5 nM): 5.92%; inhibition at 0.025 µM ([3]; Calu-3, concentration 25 nM): 31.7%; inhibition at 0.25 µM ([3]; Calu-3, concentration 250 nM): 73.6%; inhibition at 2.5 µM ([3]; Calu-3, concentration 2500 nM): 80.6%; inhibition at 25 µM ([3]; Calu-3, concentration 25000 nM): 91.7%
